Measured values as given in US20030032579A1, “Therapeutic use of selective PDE10 inhibitors” (Pfizer Inc., priority 2001, published 2003).
Values joined by “and” are separate entries in the source; they are usually repeats but may differ in a detail not shown here. Identical values can stand only once.

What was measured:
[1] = test system: primary cultures of rat striatal neurons (medium spiny neurons); experiment: cGMP accumulation in SNP-stimulated striatal cultures (Example 2); assay type: cell-based; settings: for cGMP EC200: SNP-stimulated rat striatal cultures, mean ± S.E.M.
Procedure: (§1) The striatal cultures were prepared as previously described (Ventimiglia et al., Eur. J. Neurosci. 7: 213-222, 1995). Briefly, striata (caudate nucleus and putamen) are dissected from E17 rats, were dissociated to produce a single cell suspension and plated at a density of 5×10^4 neurons/well in multiwell plates coated with poly-L-ornithine/laminin. The cells were plated in Neurobasal medium with B27 supplements and BDNF (100 ng/mL). Experiments were typically performed after 4 days in vitro. Medium spiny neurons comprise the majority of cells in these cultures (50 to 60%, as confirmed by GABA immunoreactivity).
(§2) The striatal cells were exposed to phosphodiesterase inhibitors and incubated for twenty minutes at 37 degrees Celsius. When measuring cGMP, the neurons were stimulated with sodium nitroprusside, a nitric oxide source for two minutes following the 20-minute incubation with compound. When measuring cAMP, the neurons were stimulated with forskolin, an activator of adenylate cyclase for the duration of the twenty minute compound incubation. The cells were lysed using a 9:1 combination of cAMP SPA direct screening Assay Buffer (0.05M acetate with 0.01% sodium azide) and Buffer A (133 mg/mL dodecyltrimethylammonium bromide) and the lysates were frozen on dry ice. A cGMP [[…]] or cAMP [[…]] scintillation proximity assay (SPA) system (Amersham code RPA 540 and RPA 559, respectively) was used to detect the concentration of the respective cyclic nucleotide in the cell lysate.
(§3) We therefore examined the effects of the compound under conditions in which cAMP or cGMP synthesis was stimulated with forskolin or the NO donor sodium nitroprusside (SNP), respectively.

[2] = test system: primary cultures of rat striatal neurons (medium spiny neurons); experiment: cAMP accumulation in forskolin-stimulated striatal cultures (Example 2); assay type: cell-based; settings: for cAMP EC200: forskolin-stimulated rat striatal cultures, mean ± S.E.M.; for cAMP/cGMP (ratio of EC200 values): rat striatal cultures, Example 2
Procedure: as §1, §2, §3

male CD rats = experiment: Catalepsy (bar test), alone and with haloperidol; assay type: in vivo, rat; settings: s.c.; for catalepsy when administered alone: 30 min after dosing, papaverine up to 32 mg/kg
From the text: This animal model is used to analyze the effects of compounds on basal ganglia output. […] For some experiments, this was immediately followed by haloperidol. Thirty minutes after drug administration(s), the degree of catalepsy was quantified by placing the animals forepaws on an elevated (10 cm) bar (1 cm diameter) and determining the latency to remove both forepaws from the bar with a latency cutoff of 30 sec. Latencies were ranked within each treatment group for comparison by a Kruskall-Wallace analysis of variance. Post hoc analysis was by the Mann Whitney U test.

PDE11 = target: T1, PDE11 (Homo sapiens, UniProt Q9HCR9); experiment: PDE inhibition, SPA cyclic nucleotide hydrolysis assay; assay type: biochemical
T1 construct: made in house; host or cells: SF9 cells

PDE10 = target: T2, PDE10 (Rattus norvegicus, UniProt Q9QYJ6); experiment: as above; assay type: biochemical
T2 construct: made in house; host or cells: SF9 cells
T2 sequence (Q9QYJ6 1-794): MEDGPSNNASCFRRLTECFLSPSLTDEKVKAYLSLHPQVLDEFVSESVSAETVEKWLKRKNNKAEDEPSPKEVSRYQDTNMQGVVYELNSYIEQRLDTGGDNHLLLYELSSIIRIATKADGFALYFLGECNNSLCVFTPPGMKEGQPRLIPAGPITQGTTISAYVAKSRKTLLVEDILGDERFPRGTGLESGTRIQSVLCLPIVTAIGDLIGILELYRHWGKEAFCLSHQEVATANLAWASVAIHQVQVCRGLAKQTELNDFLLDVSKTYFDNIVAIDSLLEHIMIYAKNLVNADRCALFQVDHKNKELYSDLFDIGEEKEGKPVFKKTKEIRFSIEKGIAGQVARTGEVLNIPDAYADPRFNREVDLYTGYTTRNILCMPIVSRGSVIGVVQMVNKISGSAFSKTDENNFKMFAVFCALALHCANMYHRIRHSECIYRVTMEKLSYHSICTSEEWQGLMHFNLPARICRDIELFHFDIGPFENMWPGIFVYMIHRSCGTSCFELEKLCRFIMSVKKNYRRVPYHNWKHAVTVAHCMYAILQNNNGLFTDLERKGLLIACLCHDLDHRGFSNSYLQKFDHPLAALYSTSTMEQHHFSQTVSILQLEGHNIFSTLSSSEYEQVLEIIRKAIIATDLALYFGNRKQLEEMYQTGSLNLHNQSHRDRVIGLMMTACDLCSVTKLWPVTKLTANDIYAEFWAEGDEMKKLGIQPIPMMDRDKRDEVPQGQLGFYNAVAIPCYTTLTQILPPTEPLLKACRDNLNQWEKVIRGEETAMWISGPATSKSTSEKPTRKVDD

PDE7 = test system: T3, PDE7; experiment: as above; assay type: biochemical, human; settings: substrate at 1/3 Km
T3 construct: other: substrate at 1/3 Km
From the text: (§4) PDEs 2, 3 and 5, isozymes, including human PDEs, can, for example, be prepared from corpus cavernosum; PDE1, isozymes including human, from cardiac ventricle; and PDE4, isozymes, including human, from skeletal muscle. PDE6 can be prepared, for example, from canine retina. Description of enzyme preparation from native tissue is described, for example, by Boolell, M. et al., Int. J. Impotence Research 8:7-52, 1996, incorporated herein by reference.
(§5) PDEs 7-11 can similarly be prepared from native tissue. Isozymes from the PDEs 7-9 and 11 families can alternatively be generated from full length human recombinant clones transfected into, for example, SF9 cells as described in Fisher, D. A., et al., Biochem. Biophys. Res. Comm. 246, 570-577, 1998; Soderling, S. H. et al., PNAS 96: 7071-7076, 1999; Fisher, D. A. et al., J. Biol. Chem. 273, 15559-15564, 1998b; and Fawcett, L., et al., PNAS 97: 3702-3707, 2000; respectively. PDE10 can also be generated from a rat recombinant clone transfected into SF9 cells (Fujishige et al., European Journal of Biochemistry, Vol. 266, 1118-1127 (1999)). The enzymes are then prepared by FPLC from the soluble fraction of cell lysates as described for PDE6. The aforementioned references are incorporated in their entireties herein by reference. […]

PDE1 = test system: T4, PDE1; experiment: as above; assay type: biochemical, human; settings: substrate at 1/3 Km
T4 construct: other: substrate at 1/3 Km
From the text: as §4, §5

Sprague-Dawley rats = experiment: Locomotor activity (shuttle box crossovers), PCP- or amphetamine-stimulated; assay type: in vivo, rat
Procedure: Adult, male, Sprague-Dawley rats (250-300 g) were obtained from Charles River (Wilmington, Mass.). Locomotor activity was assessed using crossover behavior in commercially available shuttle boxes (Coulbourn Instruments, Allentown, Pa.). Data was collected in 5 minute intervals for 1 hour after drug administration. Animals received either vehicle (5% DMSO, 5% Emulphor, 90% Saline) phencyclidine (PCP, Sigma Chem. Co.) or amphetamine Sulfate (RBI) followed immediately by either vehicle or test compound. Statistical analysis was performed using the Student's t-test.

[3] = test system: primary cultures of rat striatal neurons (medium spiny neurons); experiment: cGMP accumulation in SNP-stimulated striatal cultures (Example 2); assay type: cell-based; settings: compound alone, no stimulus
[4] = test system: primary cultures of rat striatal neurons (medium spiny neurons); experiment: cAMP accumulation in forskolin-stimulated striatal cultures (Example 2); assay type: cell-based; settings: compound alone, no stimulus
PDE9 = target: T5, PDE9 (Homo sapiens, UniProt O76083); experiment: PDE inhibition, SPA cyclic nucleotide hydrolysis assay; assay type: biochemical
T5 construct: made in house; host or cells: SF9 cells
Procedure: In one assay, a substance is screened for inhibition of cyclic nucleotide hydrolysis by the PDE10 and the PDEs from the other gene families. The cyclic nucleotide substrate concentration used in the assay of each individual PDE is ⅓ of the Km concentration, allowing for comparisons of IC50 values across the different enzymes. PDE activity is measured using a Scintillation Proximity Assay (SPA)-based method as previously described (Fawcett et al., 2000). The effect of PDE inhibitors is determined by assaying a fixed amount of enzyme (PDEs 1-11) in the presence of varying substance concentrations and low substrate, such that the IC50 approximates the Ki (cGMP or cAMP in a 3:1 ratio unlabelled to [^3H]-labeled at a concentration of ⅓ Km). The final assay volume is made up to 100 μl with assay buffer [20 mM Tris-HCI pH 7.4, 5 mM MgCl2, 1 mg/ml bovine serum albumin]. […] Plates are re-sealed and shaken for 20 min, after which the beads were allowed to settle for 30 min in the dark and then counted on a TopCount plate reader (Packard, Meriden, Conn.). […]
PDE activity was measured using the assay with yttrium silicate SPA beads described above in the Detailed Description section.

medium spiny neurons [5] = experiment: CREB phosphorylation in medium spiny neurons, Western blot; assay type: cell-based, rat; settings: Western blotting
Procedure: (§6) Medium spiny neuron cultures were prepared as discussed in Example 2 from striata from E17 or E18 rat embryos. The striata were digested with trypsin and the dissociated cells plated on poly-L-omithine/laminin coated plates in Neurobasal medium containing B27 supplement. For assays of cyclic nucleotide formation and CREB phosphorylation, neurons are also supplemented with 50 ng/ml BDNF and used at 6 DIV. At this time, approximately 90% of the cells are of neuronal morphology and 50% stain positively for GABA.
cAMP and cGMP activate protein kinases PKA and PKG, respectively. Both kinases are capable of phosphorylating the transcription regulator CREB. We examined the effects of the selective PDE inhibitors in Table 3 on phosphorylation of CREB as a downstream event in the cyclic nucleotide signaling cascade.

medium spiny neurons [6] = experiment: Differentiation of medium spiny neurons to GABA phenotype, Array Scan; assay type: cell-based, rat; settings: added at plating, read at 6 DIV
Procedure: The transcriptional events activated following CREB phosphorylation are involved in the survival and differentiation of neurons. We investigated whether the PDE inhibitors in Table 3 effect the survival and differentiation of the medium spiny neurons. These experiments were conducted using a protocol used by Ventimiglia et al. (see Ventimiglia et al., 1995, supra) to assay the effects of BDNF on these processes in medium spiny neurons. Specifically, the PDE inhibitors were added to the medium spiny neuron culture medium at the time of plating, and then at 6 DIV various parameters related to neuronal survival and differentiation were quantified using the Array Scan System from Cellomics, Inc (Pittsburgh, Pa., USA).
Blue-nuclei; Green-neuron; Red-neuron staining positively for GABA.

medium spiny neurons [7] = experiment: cGMP accumulation in SNAP-stimulated medium spiny neuron culture (Example 5); assay type: cell-based, rat
Procedure: as §6
(§7) The PDE inhibitors were differentiated by the potencies with which they potentiated the increase in cAMP versus cGMP (Table 3).

medium spiny neurons [8] = experiment: cAMP accumulation in forskolin-stimulated medium spiny neuron culture (Example 5); assay type: cell-based, rat
Procedure: as §6, §7

T1 sequence (Q9HCR9 445-933): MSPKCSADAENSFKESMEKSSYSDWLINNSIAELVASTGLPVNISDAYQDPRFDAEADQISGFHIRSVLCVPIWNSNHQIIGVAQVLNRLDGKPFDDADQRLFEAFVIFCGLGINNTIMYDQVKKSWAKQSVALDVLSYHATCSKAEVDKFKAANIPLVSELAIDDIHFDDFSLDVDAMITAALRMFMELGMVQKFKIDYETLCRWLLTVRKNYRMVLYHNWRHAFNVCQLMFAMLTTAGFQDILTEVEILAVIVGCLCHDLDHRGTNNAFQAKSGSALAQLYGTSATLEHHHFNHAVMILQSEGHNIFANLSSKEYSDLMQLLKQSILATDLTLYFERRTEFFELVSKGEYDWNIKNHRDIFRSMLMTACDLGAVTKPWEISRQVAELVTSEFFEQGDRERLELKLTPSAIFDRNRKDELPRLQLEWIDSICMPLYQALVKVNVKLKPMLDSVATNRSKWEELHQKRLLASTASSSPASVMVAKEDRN
T5 sequence (O76083 whole entry): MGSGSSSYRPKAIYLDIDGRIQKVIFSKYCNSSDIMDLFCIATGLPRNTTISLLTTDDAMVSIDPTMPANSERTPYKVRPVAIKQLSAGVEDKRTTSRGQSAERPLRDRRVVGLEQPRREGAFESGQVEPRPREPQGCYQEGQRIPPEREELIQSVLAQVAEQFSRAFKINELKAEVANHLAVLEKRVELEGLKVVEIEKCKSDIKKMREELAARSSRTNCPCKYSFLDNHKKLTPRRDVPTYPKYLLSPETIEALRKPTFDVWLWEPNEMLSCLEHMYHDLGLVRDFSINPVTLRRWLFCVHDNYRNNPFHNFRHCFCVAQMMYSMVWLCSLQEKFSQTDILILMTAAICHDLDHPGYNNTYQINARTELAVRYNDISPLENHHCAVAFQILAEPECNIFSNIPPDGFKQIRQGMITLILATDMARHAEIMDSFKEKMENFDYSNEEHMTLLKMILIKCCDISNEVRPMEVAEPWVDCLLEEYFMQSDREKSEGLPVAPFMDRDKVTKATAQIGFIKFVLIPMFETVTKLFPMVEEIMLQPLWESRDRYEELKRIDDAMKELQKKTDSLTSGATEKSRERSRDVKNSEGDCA

## CC(C)Cn1c(=O)n(C)c(=O)c2[nH]cnc21 [IBMX]
[1]
  cGMP EC200: 19 μM and 19.5 (1) μM
[2]
  cAMP EC200: 30 μM and 30.2 (2) μM
  cAMP/cGMP (ratio of EC200 values): 1.5

## COc1ccc(Cc2nccc3cc(OC)c(OC)cc23)cc1OC [Papaverine, 1-[(3,4-dimethoxyphenyl)methyl]-6,7-dimethoxyisoquinoline]
[1]
  cGMP EC200: 11.7 μM and 11.7 ± 8.2 (4) μM
[1]; at 100 μM
  maximal elevation of cGMP over cultures stimulated with SNP alone: 5 fold
Male CD rats
  catalepsy when administered alone: did not alone induce catalepsy
Male CD rats; haloperidol […]
  minimum effective dose for potentiation of haloperidol-induced catalepsy: 3.2 mg/kg
PDE11
  IC50: 11 µM
PDE10
  IC50: 0.018 µM
PDE7
  IC50: 27 µM
PDE1
  IC50: 37 µM
Sprague-Dawley rats; 32 mg/kg, i.p., 60 min
  locomotor activity, compound alone: small decrease in locomotor activity
Sprague-Dawley rats; amphetamine 1 mg/kg s.c., 30 minutes
  amphetamine stimulated locomotion, second experiment: effectively inhibited
Sprague-Dawley rats; papaverine 32 mg/kg i.p., PCP […] i.p., 60 min
  locomotor activity stimulated by phencyclidine: significant reduction in the locomotor activity
Sprague-Dawley rats; papaverine 32 mg/kg i.p., amphetamine 1 mg/kg i.p., 60 min
  locomotor activity stimulated by amphetamine: without effecting
[3]
  change in basal level of cGMP: did not produce measurable changes
[4]
  change in basal level of cAMP: did not produce measurable changes
[2]
  cAMP EC200: 38.3 ± 11.4 (4) μM
PDE9
  IC50: 400 µM

## COc1ccc(C2CNC(=O)C2)cc1OC1CCCC1 (stereo not drawn) [Rolipram]
Medium spiny neurons [5]
  rank order of efficacy in increasing CREB phosphorylation: forskolin>selective PDE 10 inhibitor>rolipram
Medium spiny neurons [5]; compound without other stimuli
  CREB phosphorylation: increased CREB phosphorylation
[1]
  cGMP EC200: 29.2 ± 10.3 (3) μM
[1]; relative to cAMP EC200
  fold higher concentration to double cGMP accumulation than cAMP: 10 fold
Medium spiny neurons [6]
  number of GABAergic neurons: no effect
Medium spiny neurons [7]; FIG. 4
  effect on accumulation of cGMP stimulated with SNAP: potentiate the increase
Medium spiny neurons [7]; SNAP-stimulated medium spiny neurons, 6 DIV
  cGMP EC200: 71.1 ± 9.9 µM
Medium spiny neurons [7]; no stimulus
  change in cGMP level in the absence of a stimulus: no detectable change
Medium spiny neurons [8]; FIG. 3
  effect on accumulation of cAMP stimulated with forskolin: potentiate the increase
Medium spiny neurons [8]; forskolin-stimulated medium spiny neurons, 6 DIV
  cAMP EC200: 2.0 ± 0.2 µM
Medium spiny neurons [8]; medium spiny neurons, Example 5
  cAMP/cGMP (ratio of EC200 values): 0.03
Medium spiny neurons [8]; no stimulus
  change in cAMP level in the absence of a stimulus: no detectable change
[2]
  cAMP EC200: 2.5 ± 2.0 (3) μM
  cAMP/cGMP (ratio of EC200 values): 0.09
[2]; listed as rolipram
  cAMP EC200: 2.5 µM

## CCCOc1ccccc1-c1nc2nn[nH]c2c(=O)[nH]1 [Zaprinast]
[1]
  cGMP EC200: 98.3 ± 10.3 (3) μM
[2]
  cAMP EC200: >100 (3) μM
  cAMP/cGMP (ratio of EC200 values): 1

## O=C(CCCN1CCC(O)(c2ccc(Cl)cc2)CC1)c1ccc(F)cc1 [haloperidol]
Male CD rats
  maximally effective dose for catalepsy: 1 mg/kg
  catalepsy when administered alone: robust catalepsy
